Data: patent US20110028499A1, “PHARMACEUTICAL COMBINATION COMPRISING VITAMIN K” (SHIONOGI & CO., LTD., priority 2005, published 2011)
“And” between values parts separate entries of the source, which are not always exact repeats. Equal entries are not always repeated. “Also recorded” adds a separate entry of the source. One block for each compound: values may come before it.

Tests used:
[1] = system: male Sprague-Dawley rats; experiment: Example 1: PT, APTT and Fbg in rat plasma after 7-day repeated gavage administration; format: in vivo; settings: 300 mg/kg/day gavage, 7 days; for PT and APTT compared with Controls / APTT / Fbg / PT: rat
[2] = system: male Sprague-Dawley rats; experiment: Example 2: PT, APTT and Fbg in rat plasma after 1, 2 and 3 administrations; format: in vivo; settings: 300 mg/kg/day oral, blood on next day, mean
[3] = system: extrinsic and intrinsic blood coagulation factors; experiment: Example 2: activities of extrinsic and intrinsic blood coagulation factors in rat plasma (factor deficient plasma method); format: in vivo; settings: 300 mg/kg/day oral, mean, % of intact rat plasma
[4] = system: male Sprague-Dawley rats; experiment: Example 3: PT, APTT and Fbg in rats given Compound (a) and/or vitamin K1 for 3 days; format: in vivo; settings: rat; for APTT / Fbg / PT: mean
Protocol: (§1) 4-week-old male Sprague-Dawley rats (Crj:CD(SD)IGS, SPF) were purchased from CHARLES RIVER LABORATORIES JAPAN, INC., Hino Breeding Center. […] Administeration was started at. […] Subcutaneous administeration was a 3-day administeration (3 or 200 μg/kg/day) into the back skin with injection syringe attached with a subcutaneous 1⁄4 needle at 1 mL/kg/day. Oral administeration was a 3-day repeated gavage administeration (200 μg/kg/day) with gastric tube for rats at. 4 mL/kg/day. Dosing volume was calculated based on body weight measured on that day. […] Activities of Vitamin K-dependent coagulation factors ([…]) were also) measured with the same blood plasma samples according to Example 2.

[5] = system: Vitamin K-dependent coagulation factors (F-II, F-VII, F-X, F-IX); experiment: Example 3: activities of vitamin K-dependent coagulation factors in rats given Compound (a) and/or vitamin K1; format: in vivo; settings: rat, 3 days; for F-II activity / F-IX activity / F-VII activity / F-X activity: mean
Protocol: as §1

[6] = system: male Sprague-Dawley rats; experiment: Example 4: PT, APTT and Fbg in rats given Compound (a) with or without vitamin K1 for 7 days; format: in vivo; settings: rat; for APTT / Fbg / PT: Compound (a) only 200 mg/kg oral
Protocol: 4-week-old male Sprague-Dawley rats (Crl:CD(SD), SPF) were purchased from CHARLES RIVER LABORATORIES JAPAN, INC., Hino Breeding Center. […] 0.005% (v/v) solution of vitamin K1 (TOYO Pharma Co., Ltd., 30 mg/3 mL) was prepared just before use with a vehicle of water for injection (Otsuka Pharmaceutical Factory, Inc.). […] Dosing volume was calculated based on body weight, measured on that day. […] The rats were dissected after collecting the blood and a visual inspection of skeletal muscle (soleus muscle) was carried out. After that, the muscle was fixed with 10% neutral buffered formalin, paraffin section was routinely processed, and a histological examination was carried out with an optical microscope after hematoxylin and eosin staining.

[7] = system: skeletal muscle (soleus muscle); experiment: Example 4: histological examination of skeletal muscle (soleus muscle); format: in vivo; parameters: key: (±): slight; (+): mild; settings: rat, Compound (a) only 200 mg/kg oral, 7 days; individual animal
[8] = disclosed in WO01/00603; cited from earlier work
[9] = target: human PPARδ (hPPARδ) (Homo sapiens, UniProt Q03181); experiment: cell-based
[10] = Compound (a) only 300 mg/kg oral
[11] = Compound (a) only 300 mg/kg/day
[12] = individual animal, 300 mg/kg/day
[13] = vitamin K1 only 200 μg/kg subcutaneous

Chain of human PPARδ (hPPARδ) (Q03181 139-441 limits assumed): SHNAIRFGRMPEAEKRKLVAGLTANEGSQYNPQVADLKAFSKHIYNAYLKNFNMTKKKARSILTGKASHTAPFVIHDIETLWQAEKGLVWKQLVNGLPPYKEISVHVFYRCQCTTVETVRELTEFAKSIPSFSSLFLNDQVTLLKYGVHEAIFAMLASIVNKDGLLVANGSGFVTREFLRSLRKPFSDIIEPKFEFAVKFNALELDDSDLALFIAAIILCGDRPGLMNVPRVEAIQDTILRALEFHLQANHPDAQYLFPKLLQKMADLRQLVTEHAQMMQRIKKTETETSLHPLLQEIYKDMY

SMILES: Cc1cc(SCc2sc(-c3ccc(C(F)(F)F)cc3)nc2C)ccc1OCC(=O)O [Compound (a), GW501516]
rats died ([1]; 4 animals in the group): 3 | PT and APTT compared with Controls [1]: prolonged | APTT ([1]; blood on next day, group mean): 46.4 s | Fbg ([1]; blood on next day, group mean): 173.3 mg/dL | PT ([1]; blood on next day, group mean): 26.9 s | APTT ([1]; individual animal): 46.4 s | Fbg ([1]; individual animal): 173.3 mg/dL | PT ([1]; individual animal): 26.9 s | APTT ([2]; 1 dose): 19.9 s | Fbg ([2]; 1 dose): 200.1 mg/dL | PT ([2]; 1 dose): 14.6 s | APTT ([2]; 2 doses): 25.5 s | Fbg ([2]; 2 doses): 198.8 mg/dL | PT ([2]; 2 doses): 18.3 s | APTT ([2]; 3 doses): 30.7 s | Fbg ([2]; 3 doses): 175.7 mg/dL | PT ([2]; 3 doses): 21.7 s | F-II activity ([3]; 1 dose): 60.8% | F-IX activity ([3]; 1 dose): 62.5% | F-V activity ([3]; 1 dose): 93.3% | F-VII activity ([3]; 1 dose): 57.7% | F-VIII activity ([3]; 1 dose): 99.2% | F-X activity ([3]; 1 dose): 68.3% | F-XI activity ([3]; 1 dose): 84.0% | F-XII activity ([3]; 1 dose): 79.4% | F-II activity ([3]; 2 doses): 24.2% | F-IX activity ([3]; 2 doses): 34.2% | F-V activity ([3]; 2 doses): 90.6% | F-VII activity ([3]; 2 doses): 17.1% | F-VIII activity ([3]; 2 doses): 94.2% | F-X activity ([3]; 2 doses): 44.7% | F-XI activity ([3]; 2 doses): 76.0% | F-XII activity ([3]; 2 doses): 80.7% | F-II activity ([3]; 3 doses): 15.1% | F-IX activity ([3]; 3 doses): 24.6% | F-V activity ([3]; 3 doses): 93.0% | F-VII activity ([3]; 3 doses): 8.8% | F-VIII activity ([3]; 3 doses): 101.2% | F-X activity ([3]; 3 doses): 32.4% | F-XI activity ([3]; 3 doses): 71.0% | F-XII activity ([3]; 3 doses): 78.6% | APTT [4, 10]: 30.2 s | Fbg [4, 10]: 177.8 mg/dL | PT [4, 10]: 23.0 s | PT and APTT compared with the intact group [4, 11]: more prolonged | F-II activity [5, 10]: 13.8% | F-IX activity [5, 10]: 27.7% | F-VII activity [5, 10]: 6.3% | F-X activity [5, 10]: 29.9% | activities of vitamin K-dependent coagulation factors compared with the intact group [5, 11]: lowered | APTT ([6]; individual animal): 34.1 s and 67.1 s | Fbg ([6]; individual animal): 199.7 mg/dL and 227.2 mg/dL | PT ([6]; individual animal): 19.1 s and 35.5 s | APTT ([6]; mean): 50.6 s | Fbg ([6]; mean): 213.5 mg/dL | PT ([6]; mean): 27.3 s | prothrombin time and activated partial thromboplastin time ([6]; Compound (a) only 200 mg/kg/day): prolonged | Histological examination Soleus muscle: Necrosis [7]: Necrosis (+); also recorded: Necrosis (±) | elevation of HDL [8]: high elevation of HDL; also recorded: HDL-raising

SMILES: CCO/N=C/c1c(CSc2ccc(C(C)CC(=O)O)cc2OC)noc1-c1ccc(C(F)(F)F)cc1 (centres unmarked) [Compound (b)]
PT and APTT compared with Controls [1]: prolonged | APTT ([1]; blood on next day, group mean): 31.3 s | Fbg ([1]; blood on next day, group mean): 204.5 mg/dL | PT ([1]; blood on next day, group mean): 18.6 s | APTT [1, 12]: 29.1 s and 28.2 s and 30.7 s and 37.3 s | Fbg [1, 12]: 217.9 mg/dL (2×) and 208.9 mg/dL and 173.3 mg/dL | PT [1, 12]: 17.4 s and 18.6 s and 16.4 s and 22.0 s | EC50 [9]: 0.0013 µM

SMILES: Cc1c(CSc2ccc([C@@H](C)CC(=O)O)cc2)noc1-c1ccc(C(F)(F)F)cc1 [Compound (c)]
PT and APTT compared with Controls [1]: prolonged | APTT ([1]; blood on next day, group mean): 43.9 s | Fbg ([1]; blood on next day, group mean): 204.8 mg/dL | PT ([1]; blood on next day, group mean): 24.5 s | APTT [1, 12]: 21.9 s and 41.8 s and 68.2 s and 43.8 s | Fbg [1, 12]: 201.8 mg/dL and 179.6 mg/dL and 193.8 mg/dL and 243.9 mg/dL | PT [1, 12]: 13.6 s and 22.3 s and 35.9 s and 26.0 s | EC50 [9]: 0.0189 µM

APTT [4, 13]: 15.9 s | Fbg [4, 13]: 200.3 mg/dL | PT [4, 13]: 15.3 s | each item (PT, APTT, Fbg, factor activities) compared with the intact group ([4]; vitamin K1 only 200 μg/kg/day subcutaneous): no significant differences | F-II activity [5, 13]: 92.7% | F-IX activity [5, 13]: 100.2% | F-VII activity [5, 13]: 70.1% | F-X activity [5, 13]: 74.3%
SMILES: CC1=C(C/C=C(\C)CCC[C@H](C)CCC[C@H](C)CCCC(C)C)C(=O)c2ccccc2C1=O [Vitamin K1, phylloquinone]
